Measured values reported in patent US8318792B2, “Therapeutic agent for amyotrophic lateral sclerosis” (Nippon Medical School Foundation, priority 2006, dated 2012).

How the values were obtained:
Type in all cases: in vivo, mouse
G1H-G93A transgenic mice [1] = test: Exercise tolerance test: rotarod test; details: for Rotarod test score: 5 mg/kg oral daily from 80th day (before onset), score 0-3; for effect in rotarod test as compared to placebo group: 105th, 110th and 115th day, 5 mg/kg oral daily from 80th day after birth, Mann-Whitney's U test
Method: (§1) The following five kinds of exercise tolerance tests were conducted every fifth day from the 70th day after birth to evaluate the ability to exercise in the respective exercise tolerance tests. That is, the days for the exercise tolerance tests were every fifth days, such as the 70th day, 75th day, 80th day, 85th day and so on, after birth. The exercise tolerance tests were conducted throughout the survival period, and the post-mortem evaluation was based on the definitions of the following five kinds of exercise tolerance tests.
The apparatus used in the Rotarod test (Rota Rod Treadmill type 7600, Ugo Basile Co., Milano, Italy) is a rotating axle having a diameter of 3.6 cm, and this rotating axle is set up so as to have 16 revolution per minute (one rotation: 3.75 seconds). The period for which a mouse can remain on a rotating axle without falling is measured. The evaluation of the rotarod test for the mouse was performed based on the following criteria: Score 0=The time exceeds 60 seconds; Score 1=The time is more than 30 seconds and 60 seconds or less; Score 2=The time is more than 4 seconds and 30 seconds or less; and Score 3=The time is 4 seconds or less. The post-mortem evaluation of the rotarod test is defined as score 3.

G1H-G93A transgenic mice [2] = test: Exercise tolerance test: extension reflex test; details: for Extension reflex test score: 5 mg/kg oral daily from 80th day (before onset), score 0-2; for effect in extension reflex test as compared to placebo group: 105th, 110th, 115th and 120th day, 5 mg/kg oral daily from 80th day after birth, Mann-Whitney's U test
Method: as §1
As for extension reflex, extension of the hindlimbs is normally observed when a mouse is suspended in the air by its tail.
The evaluation of extension reflex test of the mice was performed based on the following criteria: Score 0=Extension reflex is recognized in both of the hindlimbs; Score 1=Extension reflex is recognized only one hindlimb; and Score 2=Extension reflex is not recognized in both of the hindlimbs. The post-mortem evaluation of the extension reflex test is defined as score 2.

G1H-G93A transgenic mice [3] = test: Exercise tolerance test: inclined plane test; details: for Inclined plane test score: 5 mg/kg oral daily from 80th day (before onset), score 0-3, 5 mg/kg; for effect in inclined plane test as compared to placebo group: 110th, 115th, 120th, 125th and 130th day, 5 mg/kg oral daily from 80th day after birth, Mann-Whitney's U test
Method: as §1
The apparatus used in the inclined plane test is an apparatus allowing a wooden board to be fixed at the respective angles of 45°, 65° and 80° from a horizontal plane. A mouse is placed in the posture of head-up position on the wooden board inclined at each angle and the mouse is allowed to maintain this position for 5 seconds without falling downward. In the evaluation method of the inclined plane test for each mouse, the number of seconds (TA seconds: 5 seconds or less) during which the position could be maintained without falling downward is measured at each of the angles (A) of 45°, 65° and 80°, and then the total sum value of the products of the angle (A) and the number of seconds (TA) during which the position could be maintained: Σ [Angle(A)×Time (TA)] is calculated. Since a normal mouse is capable of maintaining the position on the wooden board inclined to the respective angles for 5 seconds, the sum value of Σ [Angle(A)×Time (TA)] will be 80×5+65×5+45×5=950. The evaluation of the inclined plane test for the mouse was performed based on the following criteria: Score 0=950; Score 1=over 550 to less than 950; Score 2=over 225 to 550; and Score 3=225 and below. The post-mortem evaluation of the inclined plane test is defined as score 3.

[4] = from the 130th day to 140th day after birth

N#Cc1cc(-c2n[nH]c(-c3ccncc3)n2)ccn1 [compound (b), 4-(5-pyridin-4-yl-1H-[1,2,4]triazol-3-yl)pyridine-2-carbonitrile]
Rotarod test score (G1H-G93A transgenic mice [1]; 70th day after birth, 5 mg/kg): 0.0±0.0 | Rotarod test score (G1H-G93A transgenic mice [1]; 75th day after birth, 5 mg/kg): 0.0±0.0 | Rotarod test score (G1H-G93A transgenic mice [1]; 80th day after birth, 5 mg/kg): 0.0±0.0 | Rotarod test score (G1H-G93A transgenic mice [1]; 85th day after birth, 5 mg/kg): 0.0±0.0 | Rotarod test score (G1H-G93A transgenic mice [1]; 90th day after birth, 5 mg/kg): 0.0±0.0 | Rotarod test score (G1H-G93A transgenic mice [1]; 95th day after birth, 5 mg/kg): 0.0±0.0 | Rotarod test score (G1H-G93A transgenic mice [1]; 100th day after birth, 5 mg/kg): 0.0±0.0 | Rotarod test score (G1H-G93A transgenic mice [1]; 105th day after birth, 5 mg/kg): 0.0±0.0 | effect in rotarod test as compared to placebo group (G1H-G93A transgenic mice [1]): significant effects | Rotarod test score (G1H-G93A transgenic mice [1]; 110th day after birth, 5 mg/kg): 0.5±0.7 | Rotarod test score (G1H-G93A transgenic mice [1]; 115th day after birth, 5 mg/kg): 1.3±1.1 | Rotarod test score (G1H-G93A transgenic mice [1]; 120th day after birth, 5 mg/kg): 2.5±0.5 | Rotarod test score (G1H-G93A transgenic mice [1]; 125th day after birth): 3.0 ± 0.0 | Rotarod test score (G1H-G93A transgenic mice [1]; 130th day after birth): 3.0 ± 0.0 | Rotarod test score (G1H-G93A transgenic mice [1]; 135th day after birth): 3.0 ± 0.0 | Rotarod test score (G1H-G93A transgenic mice [1]; 140th day after birth): 3.0 ± 0.0 | Rotarod test score (G1H-G93A transgenic mice [1]; from the 125th day to 140th day after birth): 3.0±0.0 | Extension reflex test score (G1H-G93A transgenic mice [2]; 70th day after birth, 5 mg/kg): 0.0±0.0 | Extension reflex test score (G1H-G93A transgenic mice [2]; 75th day after birth, 5 mg/kg): 0.0±0.0 | Extension reflex test score (G1H-G93A transgenic mice [2]; 80th day after birth, 5 mg/kg): 0.0±0.0 | Extension reflex test score (G1H-G93A transgenic mice [2]; 85th day after birth, 5 mg/kg): 0.0±0.0 | Extension reflex test score (G1H-G93A transgenic mice [2]; 90th day after birth, 5 mg/kg): 0.0±0.0 | Extension reflex test score (G1H-G93A transgenic mice [2]; 95th day after birth, 5 mg/kg): 0.0±0.0 | Extension reflex test score (G1H-G93A transgenic mice [2]; 100th day after birth, 5 mg/kg): 0.0±0.0 | Extension reflex test score (G1H-G93A transgenic mice [2]; 105th day after birth, 5 mg/kg): 0.0±0.0 | effect in extension reflex test as compared to placebo group (G1H-G93A transgenic mice [2]): significant effects | Extension reflex test score (G1H-G93A transgenic mice [2]; 110th day after birth, 5 mg/kg): 0.1±0.3 | Extension reflex test score (G1H-G93A transgenic mice [2]; 115th day after birth, 5 mg/kg): 0.5±0.5 | Extension reflex test score (G1H-G93A transgenic mice [2]; 120th day after birth, 5 mg/kg): 1.3±0.5 | Extension reflex test score (G1H-G93A transgenic mice [2]; 125th day after birth, 5 mg/kg): 1.8±0.4 | Extension reflex test score (G1H-G93A transgenic mice [2]; 130th day after birth): 2.0 ± 0.0 | Extension reflex test score (G1H-G93A transgenic mice [2]; 135th day after birth): 2.0 ± 0.0 | Extension reflex test score (G1H-G93A transgenic mice [2]; 140th day after birth): 2.0 ± 0.0 | Extension reflex test score (G1H-G93A transgenic mice [2]; [4]): 2.0±0.0 | Inclined plane test score (G1H-G93A transgenic mice [3]; 70th day after birth): 0.0±0.0 | Inclined plane test score (G1H-G93A transgenic mice [3]; 75th day after birth): 0.0±0.0 | Inclined plane test score (G1H-G93A transgenic mice [3]; 80th day after birth): 0.0±0.0 | Inclined plane test score (G1H-G93A transgenic mice [3]; 85th day after birth): 0.0±0.0 | Inclined plane test score (G1H-G93A transgenic mice [3]; 90th day after birth): 0.0±0.0 | Inclined plane test score (G1H-G93A transgenic mice [3]; 95th day after birth): 0.0±0.0 | Inclined plane test score (G1H-G93A transgenic mice [3]; 100th day after birth): 0.0±0.0 | Inclined plane test score (G1H-G93A transgenic mice [3]; 105th day after birth): 0.0±0.0 | Inclined plane test score (G1H-G93A transgenic mice [3]; 110th day after birth): 0.0±0.0 | effect in inclined plane test as compared to placebo group (G1H-G93A transgenic mice [3]): significant effects | Inclined plane test score (G1H-G93A transgenic mice [3]; 115th day after birth): 0.1±0.3 | Inclined plane test score (G1H-G93A transgenic mice [3]; 120th day after birth): 0.6±0.7 | Inclined plane test score (G1H-G93A transgenic mice [3]; 125th day after birth): 1.4±0.7 | Inclined plane test score (G1H-G93A transgenic mice [3]; 130th day after birth): 2.3±0.7 | Inclined plane test score (G1H-G93A transgenic mice [3]; 135th day after birth): 2.9±0.3 | Inclined plane test score (G1H-G93A transgenic mice [3]; 140th day after birth): 3.0±0.0

CC(C)(C)COc1ccc(-n2cc(C(=O)O)cn2)cc1C#N [compound (a), 1-[3-cyano-4-(2,2-dimethylpropoxy)phenyl]-1H-pyrazole-4-carboxylic acid]
Rotarod test score (G1H-G93A transgenic mice [1]; 70th day after birth, 5 mg/kg): 0.0±0.0 | Rotarod test score (G1H-G93A transgenic mice [1]; 75th day after birth, 5 mg/kg): 0.0±0.0 | Rotarod test score (G1H-G93A transgenic mice [1]; 80th day after birth, 5 mg/kg): 0.0±0.0 | Rotarod test score (G1H-G93A transgenic mice [1]; 85th day after birth, 5 mg/kg): 0.0±0.0 | Rotarod test score (G1H-G93A transgenic mice [1]; 90th day after birth, 5 mg/kg): 0.0±0.0 | Rotarod test score (G1H-G93A transgenic mice [1]; 95th day after birth, 5 mg/kg): 0.0±0.0 | Rotarod test score (G1H-G93A transgenic mice [1]; 100th day after birth, 5 mg/kg): 0.0±0.0 | Rotarod test score (G1H-G93A transgenic mice [1]; 105th day after birth, 5 mg/kg): 0.0±0.0 | effect in rotarod test as compared to placebo group (G1H-G93A transgenic mice [1]): significant effects | Rotarod test score (G1H-G93A transgenic mice [1]; 110th day after birth, 5 mg/kg): 0.3±0.7 | Rotarod test score (G1H-G93A transgenic mice [1]; 115th day after birth, 5 mg/kg): 1.2±1.3 | Rotarod test score (G1H-G93A transgenic mice [1]; 120th day after birth, 5 mg/kg): 2.2±0.9 | Rotarod test score (G1H-G93A transgenic mice [1]; 125th day after birth, 5 mg/kg): 2.7±0.5 | Rotarod test score (G1H-G93A transgenic mice [1]; 130th day after birth): 3.0 ± 0.0 | Rotarod test score (G1H-G93A transgenic mice [1]; 135th day after birth): 3.0 ± 0.0 | Rotarod test score (G1H-G93A transgenic mice [1]; 140th day after birth): 3.0 ± 0.0 | Rotarod test score (G1H-G93A transgenic mice [1]; [4]): 3.0±0.0 | Extension reflex test score (G1H-G93A transgenic mice [2]; 70th day after birth, 5 mg/kg): 0.0±0.0 | Extension reflex test score (G1H-G93A transgenic mice [2]; 75th day after birth, 5 mg/kg): 0.0±0.0 | Extension reflex test score (G1H-G93A transgenic mice [2]; 80th day after birth, 5 mg/kg): 0.0±0.0 | Extension reflex test score (G1H-G93A transgenic mice [2]; 85th day after birth, 5 mg/kg): 0.0±0.0 | Extension reflex test score (G1H-G93A transgenic mice [2]; 90th day after birth, 5 mg/kg): 0.0±0.0 | Extension reflex test score (G1H-G93A transgenic mice [2]; 95th day after birth, 5 mg/kg): 0.0±0.0 | Extension reflex test score (G1H-G93A transgenic mice [2]; 100th day after birth, 5 mg/kg): 0.0±0.0 | Extension reflex test score (G1H-G93A transgenic mice [2]; 105th day after birth, 5 mg/kg): 0.0±0.0 | effect in extension reflex test as compared to placebo group (G1H-G93A transgenic mice [2]): significant effects | Extension reflex test score (G1H-G93A transgenic mice [2]; 110th day after birth, 5 mg/kg): 0.1±0.3 | Extension reflex test score (G1H-G93A transgenic mice [2]; 115th day after birth, 5 mg/kg): 0.5±0.5 | Extension reflex test score (G1H-G93A transgenic mice [2]; 120th day after birth, 5 mg/kg): 0.9±0.7 | Extension reflex test score (G1H-G93A transgenic mice [2]; 125th day after birth, 5 mg/kg): 1.5±0.5 | Extension reflex test score (G1H-G93A transgenic mice [2]; 130th day after birth, 5 mg/kg): 1.9±0.3 | Extension reflex test score (G1H-G93A transgenic mice [2]; 135th day after birth, 5 mg/kg): 2.0±0.0 | Extension reflex test score (G1H-G93A transgenic mice [2]; 140th day after birth, 5 mg/kg): 2.0±0.0 | Inclined plane test score (G1H-G93A transgenic mice [3]; 70th day after birth): 0.0±0.0 | Inclined plane test score (G1H-G93A transgenic mice [3]; 75th day after birth): 0.0±0.0 | Inclined plane test score (G1H-G93A transgenic mice [3]; 80th day after birth): 0.0±0.0 | Inclined plane test score (G1H-G93A transgenic mice [3]; 85th day after birth): 0.0±0.0 | Inclined plane test score (G1H-G93A transgenic mice [3]; 90th day after birth): 0.0±0.0 | Inclined plane test score (G1H-G93A transgenic mice [3]; 95th day after birth): 0.0±0.0 | Inclined plane test score (G1H-G93A transgenic mice [3]; 100th day after birth): 0.0±0.0 | Inclined plane test score (G1H-G93A transgenic mice [3]; 105th day after birth): 0.0±0.0 | Inclined plane test score (G1H-G93A transgenic mice [3]; 110th day after birth): 0.0±0.0 | effect in inclined plane test as compared to placebo group (G1H-G93A transgenic mice [3]): significant effects | Inclined plane test score (G1H-G93A transgenic mice [3]; 115th day after birth): 0.1±0.3 | Inclined plane test score (G1H-G93A transgenic mice [3]; 120th day after birth): 0.4±0.5 | Inclined plane test score (G1H-G93A transgenic mice [3]; 125th day after birth): 1.1±0.9 | Inclined plane test score (G1H-G93A transgenic mice [3]; 130th day after birth): 2.1±0.9 | Inclined plane test score (G1H-G93A transgenic mice [3]; 135th day after birth): 2.7±0.5 | Inclined plane test score (G1H-G93A transgenic mice [3]; 140th day after birth): 3.0±0.0
